# Data as given in patent US8299126B2, “Treatment of canine hemangiosarcoma with a histone deacetylase inhibitor” (priority 2003, dated 2012).
# Several values for one entry are separate records, joined by “and”; a condition that tells them apart may be missing. Identical values can stand only once. Like-named read-outs stand apart in the source and are kept apart here.
# How the values were obtained:
# hemangiosarcoma = conditions: canines, surgery and chemotherapy with doxorubicin; cited from earlier work
# canine hemangiosarcoma = format: in vivo
# Protocol: The present invention is based in part on a case study of a dog having hemangiosarcoma. In the case study, SAHA was administered to the dog at a dose of 100 mg per day (about 3.3 mg/kg/day) post-splenectomy, mixed as a dry powder in dog food. The dog remains in good health more than 400 days post-splenectomy.
# A 75 pound (33.75 kg), 12 year old female Rhodesian Ridgeback-Pit Bull mix was diagnosed with hemangiosarcoma. Symptoms included unexplained weakness, pale color to the mucous membranes of the mouth, lack of appetite and excessive consumption of water. The dog was brought to an emergency veterinary center, where X-ray and sonogram examination indicated a multi-lobulated mass on the spleen. An emergency splenectomy was performed, during which approximately 1 liter of blood was aspirated from the body cavity. There was no gross evidence of metastases in the liver or heart and a liver biopsy was taken. […] Nuclei were mildly pleomorphic, oval and had prominent nucleoli. Mitoses were occasionally present. Extramedullary hematopoiesis was present throughout and large areas of hemorrhage and necrosis was typical. The tumor was multifocal throughout the spleen. Pathology results were reported as hemangiosarcoma, grade 1, spleen, with a normal liver.
# Starting approximately 2 weeks after splenectomy, when signs of weakness had re-appeared, SAHA was administered in the diet at 100 mg/day, 7 days/week. The dose was based on a rough extrapolation from rat studies. The diet consisted of a cup of standard pelleted dog food (Solid Gold, Hund-n-Flocken), a teaspoonful of brewers yeast (Foster and Smith, Rhinelander, Wis.), 1-2 ml of an essential fatty acid mixture containing n-6 and n-3 PUFA (Foster and Smith), and 2 tablespoonfuls of wet dog food (Pedigree®, Kal Kan Foods, Inc., CA), in which the SAHA was administered.
# Within 24 hrs, there was an immediate, observable decrease in weakness and lethargy. […] For three months from diagnosis, the dog went through periods of high alertness and activity punctuated by brief periods of mild lethargy.
# (§1) A little over 7 months post-splenectomy, the dog was examined for possible signs of metastasis by chest X-Ray, abdominal ultrasound, echogram, urinalysis and CBC.
# [1] = Analyzed urine output: removal, half-life and metabolism of SAHA; format: in vivo
# Description: (§2) Therefore, it may be possible with further studies to better understand the effect of SAHA on the vascularization of tumors, not only in canines, but perhaps in humans as well.
# [2] = system: NMU-induced rat mammary tumors; conditions: cited from earlier work
# [3] = Follow-up blood chemistry and hematology of the SAHA-treated dog; format: in vivo, canine
# Description: Approximately one month post-splenectomy, the dog was examined and found to be in good condition. […] The platelet count was above the normal range 550, (reference range, 100-450).
# as §1
# General toxicity of SAHA = test: General toxicity of SAHA
# Description: The daily dosage of the compound of the present invention may vary according to a variety of factors such as underlying disease states, the individual's type, species, and medical condition, weight, sex, age, the severity of the condition to be treated; the route of administration; and the particular compound thereof employed. […] A physician or veterinarian of ordinary skill can readily determine and prescribe the effective amount of the drug required to prevent, counter or arrest the progress of the condition. Optimal precision in achieving concentrations of drug within the range that yields efficacy without toxicity requires a regimen based on the kinetics of the drug's availability to target sites. This involves consideration of the absorption, distribution, metabolism, and excretion of a drug, which are readily quantified.
# [4] = Stability at room temperature and solubility of the active compound; format: physicochemical
# Description: Suitable preparations of such compositions include emulsions or solid forms suitable for emulsion. As used herein “solid forms” include powders and finely divided particles. Due to the insoluble nature of the active compound, e.g., SAHA, the preferred preparation is in the form of a powder.
# as §2
# [5] = system: human prostate cancer cells; conditions: mouse xenograft model (Butler et al. 2000); cited from earlier work
# [6] = added to the diet, chemopreventive (Cohen et al., 1999)
compound,measurement,setting,value
COc1cccc2c1C(=O)c1c(O)c3c(c(O)c1C2=O)C[C@@](O)(C(=O)CO)C[C@@H]3O[C@H]1C[C@H](N)[C@H](O)[C@H](C)O1 [doxorubicin],prognosis once diagnosed,hemangiosarcoma,less than six
"O=C(CCCCCCC(=O)Nc1ccccc1)NO [SAHA, suberoylanilide hydroxamic acid]",signs of decreased energy after dose increase,canine hemangiosarcoma; SAHA increased to 110 mg/day,no signs of decreased energy
same,"signs of metastasis by chest X-Ray, abdominal ultrasound, echogram, urinalysis and CBC",canine hemangiosarcoma; a little over 7 months post-splenectomy,no evidence of dissemination
same,time to observable decrease in weakness and lethargy,"canine hemangiosarcoma; after start of SAHA 100 mg/day in the diet, about 2 weeks after splenectomy",≤ 24 h
same,time the dog remains in good health post-splenectomy,"canine hemangiosarcoma; one dog with hemangiosarcoma, SAHA 100 mg per day (about 3.3 mg/kg/day), later 110 mg/day, in dog food",more than 400 days and 400 days
same,duration of suppression of metastatic dissemination of neoplastic endothelial cells post-splenectomy,"canine hemangiosarcoma; one dog, SAHA daily in diet",210 days
same,half-life,[1]; from analyzed urine output,approximately three to four
same,removal from the body,[1]; from analyzed urine output,rapidly removed from the body
same,metabolism by the animal,[1]; in vivo,not readily metabolized
same,"effect on time of appearance, incidence, multiplicity and total number of NMU-induced rat mammary tumors",[2]; [6],significantly inhibit
same,side effects,[2]; [6],no deleterious side effects
same,effect on established rat mammary tumors,"[2]; administered in the diet, chemotherapeutic (Cohen et al., 2002)","decrease the size, slow the growth rate and, in some cases, induce the complete regression"
same,side effects,"[2]; administered in the diet, established tumors (Cohen et al., 2002)",no toxic side effects
same,bands neutrophils,"[3]; a little over 7 months post-splenectomy, range 0-3",6
same,RBC,"[3]; a little over 7 months post-splenectomy, range 5.5-8.5",4.98 10^6/µL
same,segmented neutrophil,"[3]; a little over 7 months post-splenectomy, range 32-36",36.5
same,Hematocrit,"[3]; a little over 7 months post-splenectomy, range 37-55",35.3%
same,alkaline phosphatase,"[3]; a little over 7 months post-splenectomy, reference range 10-150",3 U/L
same,RBC,"[3]; approximately one month post-splenectomy, range 5-8",4.96 10^6/µL
same,hemoglobin,"[3]; approximately one month post-splenectomy, range 14-21",13.2 g/dL
same,LDH,"[3]; approximately one month post-splenectomy, reference range 50-550",49 U/L
same,platelet count,"[3]; approximately one month post-splenectomy, reference range 100-450",550 10^3/µL
same,toxicity,General toxicity of SAHA,almost no measurable toxicity other than possible fatigue at high doses
same,solubility,[4],insoluble
same,stability at room temperature,[4]; room temperature,stable at room temperature
same,tumor growth,[5],inhibited tumor growth
